The source of these data is patent publication US12703729B2, “GIP agonist compounds and methods” (Zealand Pharma A/S, priority 2014, dated 2026).

Starred links: 1 amine or outer side, 2 acyl side, 3 side chain; linkers in the order of their positions; H or OH if unused. Non-standard residues stand in square brackets, D forms with d. Residues, ends and D or L forms follow the SMILES beside them. Groups on a side chain read outwards from the residue. *: point of attachment. C20 diacid = O=C(O)CCCCCCCCCCCCCCCCCCC(=O)*; γGlu = O=C(O)[C@H](CCC(=O)[*:2])N[*:1]; AEEA = NCCOCCOCC(=O)O; Aib = CC(C)(N)C(=O)O Where only a bound is given, the exact number is not on record here.

Data set [1] is described as follows: in vivo. The note with it: male, C57BL/6J, mouse; for bioavailability: Bioavailability s.c.; for half-life: 200 nmol/kg.
Data set [2] has as its target T1, human GIP R (Homo sapiens, UniProt P48546).
T1 sequence (P48546 22-466): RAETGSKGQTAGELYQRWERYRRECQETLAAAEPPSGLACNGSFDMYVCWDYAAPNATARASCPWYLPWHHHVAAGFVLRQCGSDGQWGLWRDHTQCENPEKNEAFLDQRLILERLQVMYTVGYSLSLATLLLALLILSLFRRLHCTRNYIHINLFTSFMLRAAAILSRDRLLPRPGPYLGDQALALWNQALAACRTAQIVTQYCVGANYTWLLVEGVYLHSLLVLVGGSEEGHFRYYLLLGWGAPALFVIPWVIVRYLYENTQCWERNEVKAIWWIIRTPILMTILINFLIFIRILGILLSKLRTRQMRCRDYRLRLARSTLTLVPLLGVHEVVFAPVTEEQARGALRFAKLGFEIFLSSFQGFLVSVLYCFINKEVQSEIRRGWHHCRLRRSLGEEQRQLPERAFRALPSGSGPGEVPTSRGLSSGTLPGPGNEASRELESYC
Nature of the data set: cell-based.

The target of data set [3] is T2, human GIP receptor (GIP R) (Homo sapiens, UniProt P48546).
T2 sequence (P48546 22-466): T1 sequence (P48546 22-466)
Briefly: Activity assay at human GIP receptor, cAMP induction (AlphaScreen), Example 3. A general note: Bead proximity is the source of the signal in Alpha formats.

Data set [4] concerns the target human GLP-1 receptor (GLP-1R) (Homo sapiens, UniProt P43220). Nature of the data set: Activity assay at human GLP-1 receptor, cAMP induction (AlphaScreen), Example 3.
Where [5] appears, read: iv, Terminal elimination half-life T½ i.v.
The mark [6] stands for this setting: sc, Terminal elimination half-life T½ s.c.

The term bioavailability denotes the share of a dose that reaches the circulation, judged against a reference dose that is usually intravenous. Low values mean little systemic uptake, high ones much systemic uptake. In general, half-life refers to the time in which the quantity being followed falls by half. For orientation: Tmax means the time at which the peak concentration occurs. What is called EC50 is the concentration giving half of the maximal effect. Higher therefore signals lower potency in that assay.

Sequence of human GLP-1 receptor (GLP-1R) (P43220 24-463): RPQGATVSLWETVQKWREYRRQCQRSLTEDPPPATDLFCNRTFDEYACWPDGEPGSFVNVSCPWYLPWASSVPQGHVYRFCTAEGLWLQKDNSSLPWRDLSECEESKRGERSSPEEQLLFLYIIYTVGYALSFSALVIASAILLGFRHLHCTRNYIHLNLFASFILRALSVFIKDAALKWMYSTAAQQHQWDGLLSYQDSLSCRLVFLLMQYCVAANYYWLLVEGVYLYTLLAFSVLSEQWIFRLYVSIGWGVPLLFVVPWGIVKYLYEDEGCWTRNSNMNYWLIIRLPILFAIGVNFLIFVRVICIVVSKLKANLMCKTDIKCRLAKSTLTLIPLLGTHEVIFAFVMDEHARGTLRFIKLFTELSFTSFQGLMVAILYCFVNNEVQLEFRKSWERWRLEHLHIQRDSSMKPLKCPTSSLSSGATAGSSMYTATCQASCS

As for `CC[C@H](C)[C@H](NC(=O)[C@H](CO)NC(=O)[C@H](Cc1ccc(O)cc1)NC(=O)[C@H](CC(=O)O)NC(=O)[C@H](CO)NC(=O)[C@@H](NC(=O)[C@H](Cc1ccccc1)NC(=O)[C@@H](NC(=O)CNC(=O)[C@H](CCC(=O)O)NC(=O)C(C)(C)NC(=O)[C@@H](N)Cc1ccc(O)cc1)[C@@H](C)O)[C@@H](C)CC)C(=O)N[C@@H](CCC(=O)O)C(=O)N[C@@H](CC(C)C)C(=O)N[C@@H](CCC(=O)O)C(=O)N[C@@H](CCCCN)C(=O)N[C@@H](CCCCNC(=O)COCCOCCNC(=O)COCCOCCNC(=O)CC[C@H](NC(=O)CCCCCCCCCCCCCCCCCCC(=O)O)C(=O)O)C(=O)N[C@@H](C)C(=O)N[C@@H](CCC(N)=O)C(=O)N[C@@H](CCCNC(=N)N)C(=O)N[C@@H](C)C(=O)N[C@@H](Cc1ccccc1)C(=O)N[C@H](C(=O)N[C@@H](CCC(=O)O)C(=O)N[C@@H](Cc1c[nH]c2ccccc12)C(=O)N[C@@H](CC(C)C)C(=O)N[C@@H](CC(C)C)C(=O)N[C@@H](C)C(=O)N[C@@H](CCC(N)=O)C(=O)NCC(=O)N1CCC[C@H]1C(=O)N[C@@H](CO)C(=O)N[C@@H](CO)C(=O)NCC(=O)N[C@@H](C)C(=O)N1CCC[C@H]1C(=O)N1CCC[C@H]1C(=O)N1CCC[C@H]1C(=O)N[C@@H](CO)C(N)=O)C(C)C` [Compound 12], the bioavailability in data set [1] is 77%; in data set [1] (sc, repeated test), 98%. The values for the half-life in data set [1] (setting [5]) and in data set [1] (setting [6]) were 14.7 h and 16.8 h, respectively. In data set [1] (sc), the time to peak (Tmax) amounted to 8 h. Also, the results for the 50% effective concentration (EC50) in data set [2], in data set [3] and in data set [4] were 0.009 nM, 0.009 nM and over 3 nM, respectively.

With `CC[C@H](C)[C@H](NC(=O)[C@H](CCCCN)NC(=O)[C@H](CCC(=O)O)NC(=O)[C@H](CC(C)C)NC(=O)[C@H](CCC(=O)O)NC(=O)[C@@H](NC(=O)[C@H](CO)NC(=O)[C@H](Cc1ccc(O)cc1)NC(=O)[C@H](CC(=O)O)NC(=O)[C@H](CO)NC(=O)[C@@H](NC(=O)[C@H](Cc1ccccc1)NC(=O)[C@@H](NC(=O)CNC(=O)[C@H](CCC(=O)O)NC(=O)C(C)(C)NC(=O)[C@@H](N)Cc1ccc(O)cc1)[C@@H](C)O)[C@@H](C)CC)[C@@H](C)CC)C(=O)N[C@@H](C)C(=O)N[C@@H](CCC(N)=O)C(=O)N[C@@H](CCCNC(=N)N)C(=O)N[C@@H](C)C(=O)N[C@@H](Cc1ccccc1)C(=O)N[C@H](C(=O)N[C@@H](CCC(=O)O)C(=O)N[C@@H](Cc1c[nH]c2ccccc12)C(=O)N[C@@H](CC(C)C)C(=O)N[C@@H](CC(C)C)C(=O)N[C@@H](C)C(=O)N[C@@H](CCC(N)=O)C(=O)NCC(=O)N1CCC[C@H]1C(=O)N[C@@H](CO)C(=O)N[C@@H](CO)C(=O)NCC(=O)N[C@@H](C)C(=O)N1CCC[C@H]1C(=O)N1CCC[C@H]1C(=O)N1CCC[C@H]1C(=O)N[C@@H](CO)C(=O)N[C@@H](CCCCNC(=O)COCCOCCNC(=O)COCCOCCNC(=O)CC[C@H](NC(=O)CCCCCCCCCCCCCCCCCCC(=O)O)C(=O)O)C(N)=O)C(C)C` [Compound 13] (H-Y[Aib]EGTFISDYSIELEKIAQRAFVEWLLAQGPSSGAPPPSK([AEEA-AEEA-γGlu-C20 diacid])-NH2), the bioavailability in data set [1] was 75%. Further, the values for the half-life in data set [1] (setting [5]) and in data set [1] (setting [6]) were 14.4 h and 13.7 h, respectively. In addition, the Tmax in data set [1] (sc) was 8 h. The EC50 in data set [2] is 0.014 nM; in data set [3], 0.008 nM; in data set [4] it was over 10 nM.

As to `CC[C@H](C)[C@H](NC(=O)[C@H](CO)NC(=O)[C@H](Cc1ccc(O)cc1)NC(=O)[C@H](CC(=O)O)NC(=O)[C@H](CO)NC(=O)[C@@H](NC(=O)[C@H](Cc1ccccc1)NC(=O)[C@@H](NC(=O)CNC(=O)[C@H](CCC(=O)O)NC(=O)C(C)(C)NC(=O)[C@@H](N)Cc1ccc(O)cc1)[C@@H](C)O)[C@@H](C)CC)C(=O)N[C@@H](CCC(=O)O)C(=O)N[C@@H](CC(C)C)C(=O)N[C@@H](CC(=O)O)C(=O)N[C@@H](CCCCN)C(=O)N[C@@H](CCCCNC(=O)COCCOCCNC(=O)COCCOCCNC(=O)CC[C@H](NC(=O)CCCCCCCCCCCCCCCCCCC(=O)O)C(=O)O)C(=O)N[C@@H](C)C(=O)N[C@@H](C)C(=O)N[C@@H](CCC(N)=O)C(=O)N[C@@H](CC(=O)O)C(=O)N[C@@H](Cc1ccccc1)C(=O)N[C@H](C(=O)N[C@@H](CC(N)=O)C(=O)N[C@@H](Cc1c[nH]c2ccccc12)C(=O)N[C@@H](CC(C)C)C(=O)N[C@@H](CC(C)C)C(=O)N[C@@H](C)C(=O)NCC(=O)N1CCC[C@H]1C(=O)N[C@@H](CO)C(=O)N[C@@H](CO)C(=O)NCC(=O)N[C@@H](C)C(=O)N1CCC[C@H]1C(=O)N1CCC[C@H]1C(=O)N1CCC[C@H]1C(=O)N[C@@H](CO)C(N)=O)C(C)C` [Compound 15] (H-Y[Aib]EGTFISDYSIELDKK([AEEA-AEEA-γGlu-C20 diacid])AAQDFVNWLLAGPSSGAPPPS-NH2), the bioavailability in data set [1] is 87%. Moreover, the figures for the half-life in data set [1] (setting [5]) and in data set [1] (setting [6]) were 19.2 h and 16.7 h, respectively. Besides, in data set [1] (sc), the Tmax was determined as 8 h. In addition, the EC50 is 0.012 nM in data set [2], 0.024 nM in data set [3] and over 100 nM in data set [4].

Regarding `CC[C@H](C)[C@H](NC(=O)[C@H](CO)NC(=O)[C@H](Cc1ccc(O)cc1)NC(=O)[C@H](CC(=O)O)NC(=O)[C@H](CO)NC(=O)[C@@H](NC(=O)[C@H](Cc1ccccc1)NC(=O)[C@@H](NC(=O)CNC(=O)[C@H](CCC(=O)O)NC(=O)C(C)(C)NC(=O)[C@@H](N)Cc1ccc(O)cc1)[C@@H](C)O)[C@@H](C)CC)C(=O)N[C@@H](CCC(=O)O)C(=O)N[C@@H](CC(C)C)C(=O)N[C@@H](CC(=O)O)C(=O)N[C@@H](CCCCN)C(=O)N[C@@H](CCCCNC(=O)COCCOCCNC(=O)COCCOCCNC(=O)CC[C@H](NC(=O)CCCCCCCCCCCCCCCCCCC(=O)O)C(=O)O)C(=O)N[C@@H](C)C(=O)N[C@@H](CCC(N)=O)C(=O)N[C@@H](CCCNC(=N)N)C(=O)N[C@@H](C)C(=O)N[C@@H](Cc1ccccc1)C(=O)N[C@H](C(=O)N[C@@H](CCC(=O)O)C(=O)N[C@@H](Cc1c[nH]c2ccccc12)C(=O)N[C@@H](CC(C)C)C(=O)N[C@@H](CC(C)C)C(=O)N[C@@H](C)C(=O)N[C@@H](CCC(N)=O)C(=O)NCC(=O)N1CCC[C@H]1C(=O)N[C@@H](CO)C(=O)N[C@@H](CO)C(=O)NCC(=O)N[C@@H](C)C(=O)N1CCC[C@H]1C(=O)N1CCC[C@H]1C(=O)N1CCC[C@H]1C(=O)N[C@@H](CO)C(N)=O)C(C)C` [Compound 17] (H-Y[Aib]EGTFISDYSIELDKK([AEEA-AEEA-γGlu-C20 diacid])AQRAFVEWLLAQGPSSGAPPPS-NH2), the bioavailability in data set [1] was 56%. In addition, the half-life was 16.3 h in data set [1] (setting [5]) and 19.9 h in data set [1] (setting [6]). In addition, the Tmax in data set [1] (sc) amounted to 8 h. Also, the EC50 is 0.007 nM in data set [2], 0.016 nM in data set [3] and over 3 nM in data set [4].
